# Results: EPA's ToxRefDB 2
# What was measured:
# dog [1] = settings: Chronic toxicity; beagle; Oral; Feed; dose end: 52 week; group: systemic; systemic / clinical chemistry / alkaline phosphatase (alp/alk) / alkaline phosphatase (alp/alk) + systemic / clinical chemistry / …
# rabbit = settings: Prenatal developmental toxicity study, new zealand white, Oral, Gavage/Intubation, dose end: 18 GD
# rat [2] = settings: Combined chronic toxicity/carcinogenicity; sprague dawley; Oral; Feed; dose end: 24 month; group: systemic; systemic / in life observation / body weight / body weight + systemic / in life observation / body weight / body weight gain + systemic / …
# rat [3] = settings: Multigenerational reproductive toxicity study, wistar, Oral, Feed, dose end: 2 generation
# mouse [4] = settings: Carcinogenicity, cd1, Oral, Feed, dose end: 94 week, group: systemic
# rat [5] = settings: Subchronic oral toxicity in rodents, sprague dawley, Feed, dose end: 13 week, group: systemic, systemic / clinical chemistry / protein / protein + systemic / in life observation / body weight / body weight + systemic / in life …
# dog [6] = settings: Subchronic oral toxicity in nonrodent, beagle, Feed, dose end: 90 day, group: systemic
# mouse [7] = settings: Prenatal developmental toxicity study, cd1, Oral, [Not Specified], dose end: 14 GD
# rat [8] = settings: Carcinogenicity; other; Oral; Feed; dose end: 24 month; group: systemic; systemic / pathology microscopic / [other] / [other]
# mouse [9] = settings: Multigenerational reproductive toxicity study, cd1, Oral, Water, dose end: 2 generation, group: offspring
# rat [10] = settings: Prenatal developmental toxicity study, sprague dawley, Oral, Gavage/Intubation, dose end: 15 GD
# mouse [11] = settings: Prenatal developmental toxicity study, cd1, Oral, Gavage/Intubation, dose end: 15 GD
# rat [12] = settings: Carcinogenicity; fischer; Oral; Feed; dose end: 78 week; group: systemic; systemic / in life observation / body weight / body weight gain + systemic / pathology microscopic / peritoneum / neoplasm nos + systemic / …
# mouse [13] = settings: Subchronic oral toxicity in rodents, b6c3f1, Feed, dose end: 45 day, group: systemic, systemic / in life observation / mortality / mortality
# mouse [14] = settings: Prenatal developmental toxicity study, cd1, Oral, Gavage/Intubation, dose end: 15 GD; remark: listed apart in the source
# rat [15] = settings: Subchronic oral toxicity in rodents, fischer, Feed, dose end: 45 day, group: systemic, systemic / in life observation / body weight / body weight gain
# mouse [16] = settings: Carcinogenicity, b6c3f1, Oral, Feed, dose end: 78 week, group: systemic
# mouse [17] = settings: Carcinogenicity; other; Oral; Feed; dose end: 104 week; group: systemic; systemic / pathology microscopic / eye / cataract + systemic / pathology microscopic / kidney / vacuolization
# rat [18] = settings: Combined chronic toxicity/carcinogenicity; fischer; Oral; [Not Specified]; dose end: 105 week; group: systemic; systemic / in life observation / body weight / body weight gain + systemic / pathology microscopic / kidney / cytoplasmic alteration + …
# rat [19] = settings: Subchronic oral toxicity in rodents, fischer, Feed, dose end: 13 week, group: systemic
# [20] = group: developmental, developmental / developmental malformation / bone / [other] + developmental / developmental malformation / bone / misshapen
# [21] = group: maternal, reproductive / reproductive performance / aborted / aborted + reproductive / reproductive performance / postimplantation loss / …
# [22] = group: offspring, systemic / in life observation / body weight / offspring (pup) weight
# [23] = group: parental, systemic / in life observation / body weight / body weight + systemic / in life observation / body weight / body weight gain + systemic / in…
# [24] = systemic / in life observation / body weight / body weight gain + systemic / organ weight / liver / relative to body weight + systemic / …
# [25] = systemic / organ weight / liver / relative to body weight + systemic / pathology microscopic / liver / vacuolization
# [26] = systemic / organ weight / liver / relative to body weight + systemic / pathology microscopic / liver / vacuolization + systemic / in life …
# [27] = group: developmental, systemic / in life observation / body weight / offspring (pup) weight gain
# [28] = group: maternal, systemic / in life observation / mortality / mortality
# [29] = systemic / in life observation / body weight / offspring (pup) weight + systemic / organ weight / liver / relative to body weight + systemic…
# [30] = group: developmental, developmental / developmental malformation / bone / [other] + developmental / developmental malformation / bone / delayed ossification + …
# [31] = group: maternal, systemic / in life observation / body weight / body weight + systemic / in life observation / food consumption / food consumption + systemic…
# [32] = group: developmental, developmental / developmental malformation / bone / incomplete ossification + systemic / in life observation / body weight / fetal weight + …
# [33] = group: maternal, systemic / organ weight / uterus / nos + systemic / in life observation / clinical signs / altered breathing rate + systemic / in life …
# [34] = group: developmental, developmental / developmental malformation / bone / [other] + developmental / developmental malformation / general / [other] + systemic / in…
# [35] = group: maternal, reproductive / reproductive performance / implantations / implantations + reproductive / reproductive performance / resorptions / …
# [36] = group: maternal, systemic / pathology gross / spleen / enlarged
# [37] = systemic / in life observation / body weight / body weight
# [38] = systemic / in life observation / body weight / body weight + systemic / in life observation / mortality / mortality
# [39] = systemic / clinical chemistry / creatinine / creatinine + systemic / hematology / erythrocyte (rbc) count differential / erythrocyte (rbc…
smiles,measurement,setting,value
COCC(C)N(C(=O)CCl)c1c(C)csc1C (centres undefined) [Dimethenamid],LEL,dog [1],48.7 mg/kg/day
same,LOAEL,dog [1],48.7 mg/kg/day
same,NEL,dog [1],10.1 mg/kg/day
same,NOAEL,dog [1],10.1 mg/kg/day
same,LEL,rabbit; [20],150 mg/kg/day
same,LOAEL,rabbit; [20],150 mg/kg/day
same,NEL,rabbit; [20],75 mg/kg/day
same,NOAEL,rabbit; [20],75 mg/kg/day
same,LEL,rabbit; [21],150 mg/kg/day
same,LOAEL,rabbit; [21],150 mg/kg/day
same,NEL,rabbit; [21],75 mg/kg/day
same,NOAEL,rabbit; [21],75 mg/kg/day
same,LEL,rat [2],36 mg/kg/day
same,LOAEL,rat [2],36 mg/kg/day
same,NEL,rat [2],5.1 mg/kg/day
same,NOAEL,rat [2],5.1 mg/kg/day
same,LEL,rat [3]; [22],150 mg/kg/day
same,LOAEL,rat [3]; [22],150 mg/kg/day
same,NEL,rat [3]; [22],36 mg/kg/day
same,NOAEL,rat [3]; [22],36 mg/kg/day
same,LEL,rat [3]; [23],150 mg/kg/day
same,LOAEL,rat [3]; [23],150 mg/kg/day
same,NEL,rat [3]; [23],36 mg/kg/day
same,NOAEL,rat [3]; [23],36 mg/kg/day
same,LOAEL,mouse [4]; systemic / in life observation / body weight / body weight gain,200 mg/kg/day
same,LEL,mouse [4]; [24],200 mg/kg/day
same,NEL,mouse [4]; [24],40.1 mg/kg/day
same,NOAEL,mouse [4]; [24],40.1 mg/kg/day
same,LEL,rat [5],98 mg/kg/day
same,LOAEL,rat [5],98 mg/kg/day
same,NEL,rat [5],33.5 mg/kg/day
same,NOAEL,rat [5],33.5 mg/kg/day
same,LEL,dog [6]; [25],33.6 mg/kg/day
same,LOAEL,dog [6]; [25],33.6 mg/kg/day
same,NEL,dog [6]; [26],4.72 mg/kg/day
same,NOAEL,dog [6]; [26],4.72 mg/kg/day
OCCOCCOCCO [Triethylene glycol],LEL,mouse [7]; [27],11300 mg/kg/day
same,LOAEL,mouse [7]; [27],11300 mg/kg/day
same,NEL,mouse [7]; [27],4500 mg/kg/day
same,NOAEL,mouse [7]; [27],4500 mg/kg/day
same,LEL,mouse [7]; [28],11300 mg/kg/day
same,LOAEL,mouse [7]; [28],11300 mg/kg/day
same,NEL,mouse [7]; [28],4500 mg/kg/day
same,NOAEL,mouse [7]; [28],4500 mg/kg/day
same,LEL,rat [8],4 mg/kg/day
same,LOAEL,rat [8],> 4 mg/kg/day
same,NEL,rat [8],< 4 mg/kg/day
same,NOAEL,rat [8],≥ 4 mg/kg/day
same,LEL,mouse [9]; systemic / in life observation / body weight / offspring (pup) weight,2000 mg/kg/day
same,NEL,mouse [9]; systemic / in life observation / body weight / offspring (pup) weight + systemic / organ weight / liver / relative to body weight,400 mg/kg/day
same,LOAEL,mouse [9]; [29],> 4000 mg/kg/day
same,NOAEL,mouse [9]; [29],≥ 4000 mg/kg/day
same,LEL,rat [10]; [30],11300 mg/kg/day
same,LOAEL,rat [10]; [30],> 11300 mg/kg/day
same,NEL,rat [10]; [30],5630 mg/kg/day
same,NOAEL,rat [10]; [30],≥ 11300 mg/kg/day
same,LEL,rat [10]; [31],5630 mg/kg/day
same,LOAEL,rat [10]; [31],> 11300 mg/kg/day
same,NEL,rat [10]; [31],1130 mg/kg/day
same,NOAEL,rat [10]; [31],≥ 11300 mg/kg/day
same,LEL,"mouse [11]; group: developmental, developmental / developmental malformation / bone / incomplete ossification + systemic / in life observation / body weight / fetal weight",5630 mg/kg/day
same,LOAEL,mouse [11]; [32],> 11300 mg/kg/day
same,NEL,mouse [11]; [32],563 mg/kg/day
same,NOAEL,mouse [11]; [32],≥ 11300 mg/kg/day
same,LEL,"mouse [11]; group: maternal, systemic / organ weight / uterus / nos",5630 mg/kg/day
same,LOAEL,mouse [11]; [33],> 11300 mg/kg/day
same,NEL,mouse [11]; [33],563 mg/kg/day
same,NOAEL,mouse [11]; [33],≥ 11300 mg/kg/day
Nc1ccc(S(=O)(=O)c2ccc(N)cc2)cc1 [Dapsone],LEL,rat [12],30 mg/kg/day
same,LOAEL,rat [12],> 60 mg/kg/day
same,NEL,rat [12],< 30 mg/kg/day
same,NOAEL,rat [12],≥ 60 mg/kg/day
same,LEL,mouse [13],300 mg/kg/day
same,LOAEL,mouse [13],> 7500 mg/kg/day
same,NEL,mouse [13],< 300 mg/kg/day
same,NOAEL,mouse [13],≥ 7500 mg/kg/day
same,LEL,mouse [14]; [34],200 mg/kg/day
same,LOAEL,mouse [14]; [34],> 200 mg/kg/day
same,NEL,mouse [14]; [34],100 mg/kg/day
same,NOAEL,mouse [14]; [34],≥ 200 mg/kg/day
same,LOAEL,mouse [14]; [35],> 200 mg/kg/day
same,NOAEL,mouse [14]; [35],≥ 200 mg/kg/day
same,LEL,mouse [14]; [36],50 mg/kg/day
same,NEL,mouse [14]; [36],< 50 mg/kg/day
same,LEL,rat [15],60 mg/kg/day
same,LOAEL,rat [15],60 mg/kg/day
same,NEL,rat [15],< 60 mg/kg/day
same,NOAEL,rat [15],< 60 mg/kg/day
same,LOAEL,mouse [16]; [37],75 mg/kg/day
same,NOAEL,mouse [16]; [37],< 75 mg/kg/day
same,LEL,mouse [16]; [38],75 mg/kg/day
same,NEL,mouse [16]; [38],< 75 mg/kg/day
CCOc1nc(F)cc2nc(S(=O)(=O)Nc3c(Cl)cccc3Cl)nn12 [Diclosulam],LEL,mouse [17],51.3 mg/kg/day
same,LOAEL,mouse [17],51.3 mg/kg/day
same,NEL,mouse [17],< 51.3 mg/kg/day
same,NOAEL,mouse [17],< 51.3 mg/kg/day
same,LEL,rat [18],102 mg/kg/day
same,LOAEL,rat [18],102 mg/kg/day
same,NEL,rat [18],5.1 mg/kg/day
same,NOAEL,rat [18],5.1 mg/kg/day
same,LEL,rat [19]; [39],50 mg/kg/day
same,NEL,rat [19]; [39],< 50 mg/kg/day
same,NOAEL,rat [19]; [39],50 mg/kg/day
same,LOAEL,rat [19]; systemic / organ weight / liver / relative to body weight + systemic / pathology microscopic / liver / hypertrophy + systemic / pathology …,100 mg/kg/day
